Test results published in patent US12171230B2, “Herbicidal compositions” (Bayer Aktiengesellschaft, priority 2018, dated 2024).

Key:
Assay type in all cases: in vivo
Galium aparine = test: Post-emergence herbicidal action against Galium aparine
Experimental: (§1) When the observed efficacies exceed the formal sum total of the values of the tests with individual applications, they also exceed the expected value according to Colby, which is calculated using the formula below and is likewise regarded as an indication of synergism (cf. S. R. Colby; in Weeds 15 (1967) p. 20 to 22): E^C=A+B−([…])
(§2) Here: • A=efficacy of the active compound (A) in % at an application rate of a g a.i./ha; • B=efficacy of the active compound (B) in % at an application rate of b g a.i./ha; • E^C=expected value of the effect of the combination (A)+(B) in % at the combined application rate a+b g a.i./ha.
(§3) Seeds or rhizome pieces of mono- and dicotyledonous weeds are placed in sandy loam in pots, covered with soil and grown in a greenhouse under good growth conditions (temperature, air humidity, water supply). Three weeks after sowing, the test plants were treated at the three-leaf stage with the compositions according to the invention. The compositions according to the invention formulated as spray powders or as emulsion concentrates were sprayed onto the green plant parts in various dosages with an application rate of 300 to 800 l/ha of water (equivalent). After the test plants have been left to stand in the greenhouse under optimal growth conditions for about 3 to 4 weeks, the action of the preparations is scored visually in comparison to untreated controls. The compositions according to the invention also have good post-emergence herbicidal activity against a broad spectrum of economically important gramineous and broadleaf weeds.

Matricaria inodora = test: Post-emergence herbicidal action against Matricaria inodora
Centaurea cyano = test: Post-emergence herbicidal action against Centaurea cyano
Experimental: Seeds or rhizome pieces of mono- and dicotyledonous weeds are placed in sandy loam in pots, covered with soil and grown in a greenhouse under good growth conditions (temperature, air humidity, water supply). Three weeks after sowing, the test plants were treated at the three-leaf stage with the compositions according to the invention. The compositions according to the invention formulated as spray powders or as emulsion concentrates were sprayed onto the green plant parts in various dosages with an application rate of 300 to 800 l/ha of water (equivalent).

Alopecurus myosuroides = test: Post-emergence herbicidal action against Alopecurus myosuroides
Viola tricolor [1] = test: Post-emergence herbicidal action against Viola tricolor
Phalaris minor [2] = test: Post-emergence herbicidal action against Phalaris minor
Poa annua = test: Post-emergence herbicidal action against Poa annua; settings: for Herbicidal action: 28 DAT
Experimental: as §1, §2, §3

Bromus sterilis [3] = test: Post-emergence herbicidal action against Bromus sterilis
Lolium rigidum [4] = test: Post-emergence herbicidal action against Lolium rigidum
[5] = system: Lolium rigidum (resistant biotype); test: Post-emergence herbicidal action against Lolium rigidum (resistant biotype)
Lamium purpureum = test: Post-emergence herbicidal action against Lamium purpureum
Experimental: as §1, §2, §3

[6] = system: Lolium rigidum (resistant biotype); test: Post-emergence herbicidal action against Lolium rigidum (resistant biotype); settings: 16 g of a.i./ha
Text: (§4) The following abbreviations are used in the description and the tables that follow: • g of a.i./ha=grams of active substance (active ingredient) (=100% active compound) per hectare; • The sum total of the effects of the individual applications is reported under E^A; • expected values according to Colby are each reported under E^C.
(§5) The rating period is reported in days after application (DAT).

Viola tricolor [7] = test: Post-emergence herbicidal action against Viola tricolor; settings: 28 DAT
Phalaris minor [8] = test: Post-emergence herbicidal action against Phalaris minor; settings: 28 DAT; 16 g a.i./ha
Bromus sterilis [9] = test: Post-emergence herbicidal action against Bromus sterilis; settings: (Z148) post-emergence; for Herbicidal action 14 DAT against Bromus sterilis: g of a.i./ha: 4, 1, 270, 90, 30, 4 + 270, 4 + 90, 4 + 30, 1 + 30
Text: as §4, §5

Lolium rigidum [10] = test: Post-emergence herbicidal action against Lolium rigidum; settings: 16 g of a.i./ha
Text: as §4, §5

Lolium rigidum [11] = test: as above; settings: resistant biotype
Phalaris minor [12] = test: Post-emergence herbicidal action against Phalaris minor; settings: 16 g of a.i./ha
Text: as §4, §5

Bromus sterilis [13] = test: Post-emergence herbicidal action against Bromus sterilis; remark: listed apart in the source

CC(C)C1(C)N=C(c2ncccc2C(=O)O)NC1=O (stereo not drawn) [(B4.13) Imazapyr]
Herbicidal action in [%] 28 DAT against Galium aparine (Galium aparine; 0.5 g of a.i./ha): 30%
Herbicidal action in [%] 14 DAT against Galium aparine (Galium aparine; 1.5 g of a.i./ha): 40%
Herbicidal action in [%] 28 DAT against Galium aparine (Galium aparine; 1.5 g of a.i./ha): 50%
Herbicidal action in [%] 14 DAT against Galium aparine (Galium aparine; 4.5 g of a.i./ha): 25%
Herbicidal action in [%] 28 DAT against Galium aparine (Galium aparine; 4.5 g of a.i./ha): 40%
Herbicidal action in [%] 14 DAT against Matricaria inodora (Matricaria inodora; 0.5 g of a.i./ha): 0%
Herbicidal action in [%] 28 DAT against Matricaria inodora (Matricaria inodora; 0.5 g of a.i./ha): 0%
Herbicidal action in [%] 28 DAT against Matricaria inodora (Matricaria inodora; 4.5 g of a.i./ha): 20%
Herbicidal action in [%] 14 DAT against Centaurea cyanus (Centaurea cyano; 4.5 g of a.i./ha): 10%
Herbicidal action in [%] 28 DAT against Centaurea cyanus (Centaurea cyano; 4.5 g of a.i./ha): 25%
Herbicidal action in [%] 14 DAT against Alopecurus myosuroides (Alopecurus myosuroides; 1.5 g of a.i./ha): 10%
Herbicidal action in [%] 14 DAT against Alopecurus myosuroides (Alopecurus myosuroides; 4.5 g of a.i./ha): 20%
Herbicidal action in [%] 28 DAT against Alopecurus myosuroides (Alopecurus myosuroides; 4.5 g of a.i./ha): 20%
Herbicidal action in [%] 14 DAT against Viola tricolor (Viola tricolor [1]; 0.5 g of a.i./ha): 10%
Herbicidal action in [%] 14 DAT against Viola tricolor (Viola tricolor [1]; 1.5 g of a.i./ha): 40%
Herbicidal action in [%] 28 DAT against Viola tricolor (Viola tricolor [1]; 1.5 g of a.i./ha): 20%
Herbicidal action in [%] 14 DAT against Viola tricolor (Viola tricolor [1]; 4.5 g of a.i./ha): 40%
Herbicidal action in [%] 28 DAT against Viola tricolor (Viola tricolor [1]; 4.5 g of a.i./ha): 15%
Herbicidal action in [%] 14 DAT against Phalaris minor (Phalaris minor [2]; 0.5 g of a.i./ha): 0%
Herbicidal action in [%] 28 DAT against Phalaris minor (Phalaris minor [2]; 0.5 g of a.i./ha): 0%
Herbicidal action in [%] 14 DAT against Phalaris minor (Phalaris minor [2]; 1.5 g of a.i./ha): 0%
Herbicidal action in [%] 28 DAT against Phalaris minor (Phalaris minor [2]; 1.5 g of a.i./ha): 10%
Herbicidal action in [%] 14 DAT against Phalaris minor (Phalaris minor [2]; 4.5 g of a.i./ha): 25%
Herbicidal action in [%] 28 DAT against Phalaris minor (Phalaris minor [2]; 4.5 g of a.i./ha): 20%
Herbicidal action in [%] 28 DAT against Poa annua L. (Poa annua; 0.5 g of a.i./ha): 0%
Herbicidal action in [%] 14 DAT against Poa annua L. (Poa annua; 1.5 g of a.i./ha): 0%
Herbicidal action in [%] 28 DAT against Poa annua L. (Poa annua; 1.5 g of a.i./ha): 15%
Herbicidal action in [%] 14 DAT against Poa annua L. (Poa annua; 4.5 g of a.i./ha): 0%
Herbicidal action in [%] 28 DAT against Poa annua L. (Poa annua; 4.5 g of a.i./ha): 20%
Herbicidal action in [%] 14 DAT against Bromus sterilis (Bromus sterilis [3]; 0.5 g of a.i./ha): 0%
Herbicidal action in [%] 14 DAT against Bromus sterilis (Bromus sterilis [3]; 1.5 g of a.i./ha): 0%
Herbicidal action in [%] 28 DAT against Bromus sterilis (Bromus sterilis [3]; 1.5 g of a.i./ha): 10%
Herbicidal action in [%] 14 DAT against Bromus sterilis (Bromus sterilis [3]; 4.5 g of a.i./ha): 25%
Herbicidal action in [%] 28 DAT against Bromus sterilis (Bromus sterilis [3]; 4.5 g of a.i./ha): 15%
Herbicidal action in [%] 14 DAT against Lolium rigidum (Lolium rigidum [4]; 1.5 g of a.i./ha): 0%
Herbicidal action in [%] 28 DAT against Lolium rigidum (Lolium rigidum [4]; 1.5 g of a.i./ha): 0%
Herbicidal action in [%] 14 DAT against Lolium rigidum (Lolium rigidum [4]; 4.5 g of a.i./ha): 20%
Herbicidal action in [%] 28 DAT against Lolium rigidum (Lolium rigidum [4]; 4.5 g of a.i./ha): 15%
Herbicidal action in [%] 14 DAT against Lolium rigidum (resistant biotype) ([5]; 0.5 g of a.i./ha): 0%
Herbicidal action in [%] 14 DAT against Lolium rigidum (resistant biotype) ([5]; 1.5 g of a.i./ha): 10%
Herbicidal action in [%] 28 DAT against Lolium rigidum (resistant biotype) ([5]; 1.5 g of a.i./ha): 0%
Herbicidal action in [%] 14 DAT against Lolium rigidum (resistant biotype) ([5]; 4.5 g of a.i./ha): 15%
Herbicidal action in [%] 28 DAT against Lolium rigidum (resistant biotype) ([5]; 4.5 g of a.i./ha): 15%
Herbicidal action in [%] 14 DAT against Lamium purpureum L. (Lamium purpureum; 0.5 g of a.i./ha): 0%
Herbicidal action in [%] 28 DAT against Lamium purpureum L. (Lamium purpureum; 0.5 g of a.i./ha): 0%
Herbicidal action in [%] 14 DAT against Lamium purpureum L. (Lamium purpureum; 1.5 g of a.i./ha): 25%
Herbicidal action in [%] 28 DAT against Lamium purpureum L. (Lamium purpureum; 1.5 g of a.i./ha): 0%
Herbicidal action in [%] 14 DAT against Lamium purpureum L. (Lamium purpureum; 4.5 g of a.i./ha): 40%
Herbicidal action in [%] 28 DAT against Lamium purpureum L. (Lamium purpureum; 4.5 g of a.i./ha): 20%

COC(=O)C1=C[C@@H](NC(=O)[C@@]2(C)CC(c3cc(F)cc(F)c3)=NO2)CO1 [Compound A6, methyl (3R)-3-[[(5R)-3-(3,5-difluorophenyl)-5-methyl-4H-isoxazole-5-carbonyl]amino]-2,3-dihydrofuran-5-carboxylate]
Herbicidal action 28 DAT against Lolium rigidum (resistant biotype) [6]: 70%
Herbicidal action (Viola tricolor [7]; 4 g a.i./ha): 50%
Herbicidal action (Viola tricolor [7]; 16 g a.i./ha): 60%
Herbicidal action 28 DAT against Galium aparine (Galium aparine; 1 g of a.i./ha): 60%
Herbicidal action (Matricaria inodora; 14 DAT, 1 g a.i./ha): 40%
Herbicidal action 14 DAT against Matricaria inodora (Matricaria inodora; 16 g of a.i./ha): 70%
Herbicidal action (Phalaris minor [8]): 90%
Herbicidal action (Centaurea cyano; 14 DAT, 1 g a.i./ha): 40%
Herbicidal action (Centaurea cyano; 14 DAT, 4 g a.i./ha): 85%
Herbicidal action (Centaurea cyano; 28 DAT, 1 g a.i./ha): 40%
Herbicidal action (Centaurea cyano; 28 DAT, 4 g a.i./ha): 70%
Herbicidal action 28 DAT against Bromus sterilis (Bromus sterilis [9]; g of a.i./ha: 1, 270, 90, 30, 1 + 270, 1 + 90, 1 + 30): 50%
Herbicidal action 14 DAT against Bromus sterilis (Bromus sterilis [9]; 1 g of a.i./ha): 75%
Herbicidal action 14 DAT against Bromus sterilis (Bromus sterilis [9]; 4 g of a.i./ha): 80%
Herbicidal action 28 DAT against Poa annua L. (Poa annua; 16 g of a.i./ha): 70%
Herbicidal action (Poa annua; 1 g a.i./ha): 50%
Herbicidal action (Poa annua; 16 g a.i./ha): 70%
Herbicidal action 28 DAT against Lolium rigidum (Lolium rigidum [10]): 90%
Herbicidal action (Lolium rigidum [11]; 14 DAT, 1 g a.i./ha): 50%
Herbicidal action (Lolium rigidum [11]; 28 DAT, 16 g a.i./ha): 70%
Herbicidal action 28 DAT against Lamium purpureum L. (Lamium purpureum; 1 g of a.i./ha): 75%
Herbicidal action 14 DAT against Lamium purpureum L. (Lamium purpureum; 4 g of a.i./ha): 85%
Herbicidal action 28 DAT against Phalaris minor (Phalaris minor [12]): 90%
Herbicidal action (Bromus sterilis [13]; 14 DAT, 4 g a.i./ha): 80%
Herbicidal action (Bromus sterilis [13]; 14 DAT, 16 g a.i./ha): 85%
Herbicidal action (Bromus sterilis [13]; 28 DAT, 1 g a.i./ha): 50%
